This test addresses T1, human RXFP1 (Homo sapiens, UniProt Q9HBX9).
T1 construct: expressed in transfected cells
T1 sequence (Q9HBX9 1-757): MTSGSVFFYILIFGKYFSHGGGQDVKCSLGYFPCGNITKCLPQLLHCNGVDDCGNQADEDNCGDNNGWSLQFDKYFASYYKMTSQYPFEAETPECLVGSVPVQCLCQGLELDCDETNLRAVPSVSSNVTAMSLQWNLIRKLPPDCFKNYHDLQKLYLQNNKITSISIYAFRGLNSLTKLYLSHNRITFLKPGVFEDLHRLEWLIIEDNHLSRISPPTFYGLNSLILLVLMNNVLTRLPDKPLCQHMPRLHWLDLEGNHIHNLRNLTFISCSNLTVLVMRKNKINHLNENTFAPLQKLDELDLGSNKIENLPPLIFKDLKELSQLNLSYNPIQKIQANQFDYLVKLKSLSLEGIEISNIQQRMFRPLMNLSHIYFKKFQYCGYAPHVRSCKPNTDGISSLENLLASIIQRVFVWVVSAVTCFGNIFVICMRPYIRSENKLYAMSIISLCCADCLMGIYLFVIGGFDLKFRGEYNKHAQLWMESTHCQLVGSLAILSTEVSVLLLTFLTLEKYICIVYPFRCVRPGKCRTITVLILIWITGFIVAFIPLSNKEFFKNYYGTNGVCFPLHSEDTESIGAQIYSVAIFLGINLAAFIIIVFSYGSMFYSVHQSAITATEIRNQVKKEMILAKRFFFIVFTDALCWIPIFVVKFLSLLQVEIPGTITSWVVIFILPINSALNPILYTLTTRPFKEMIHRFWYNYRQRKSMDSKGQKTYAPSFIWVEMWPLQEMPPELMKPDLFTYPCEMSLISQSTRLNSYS
Put plainly: RXFP1 cAMP assay (hRXFP1 HEK293 cAMP assay, HTRF). In kind it is cell-based. The conditions noted are these: HEK293 cells stably expressing human RXFP1, 30 min at room temperature, read-out: cAMP hRXFP1 HEK293 Assay EC50. The essentials:
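Potency and activity come from a four-parameter logistic fit of cAMP against compound concentration, tested from 0.010 nM up to 50 μM. The assay uses HEK293 cells stably expressing human RXFP1, incubated 30 min at ambient temperature with phosphodiesterase inhibitor IBMX present.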
As for `CC[C@H](NC(=O)[C@@H]1[C@H](NC(=O)c2cc(C3=NOC4COCC34)ccc2OC)[C@@H]2CC[C@H]1/C2=C/C1CC1)C1CCC1` (some centres unmarked) [compound 676], the EC50 stood at 486 nM.
With `COc1ccccc1CNC(=O)[C@@H]1[C@H](NC(=O)c2cc(C3=NOC4COCC34)ccc2OC)[C@@H]2CC[C@H]1/C2=C/C1CC1` (some centres unmarked) [compound 681], the concentration giving a half-maximal response (EC50) was found to be 606 nM.
Under `COc1ccc(C2=NOC3COCC23)cc1C(=O)N[C@H]1[C@@H](C(=O)NCC2CC2)[C@H]2CC[C@@H]1/C2=C\C1CC1` (some centres unmarked) [compound 684] stands 642 nM; under `COc1ccc(C2CCCN2C(=O)C(C)(C)O)cc1C(=O)N[C@@H]1C2CCC(C2=CC2CC2)[C@@H]1C(=O)Nc1ccc(F)c(C(F)(F)F)c1` (some centres unmarked) [compound 688], 675 nM; under `COCCN1CCCC1c1ccc(OC)c(C(=O)N[C@@H]2C3CCC(C3=CC3CC3)[C@@H]2C(=O)Nc2ccc(F)c(C(F)(F)F)c2)c1` (some centres unmarked) [compound 689], 684 nM.
The value for `COc1ccc(C2=NOC3COCC23)cc1C(=O)N[C@H]1[C@@H](C(=O)NCc2ncccc2C(F)(F)F)[C@H]2CC[C@@H]1/C2=C\C1CC1` (some centres unmarked) [compound 690] was 712 nM.
The value for `COc1ccc(N2CC(=O)NC2=O)cc1C(=O)N[C@H]1[C@@H](C(=O)Nc2ccc(F)c(C(F)(F)F)c2)[C@H]2CC[C@@H]1/C2=C\C1CC1` [compound 697] was 972 nM.
`COc1ccc(C2CCCN2CC(C)(C)O)cc1C(=O)N[C@@H]1C2CCC(C2=CC2CC2)[C@@H]1C(=O)Nc1ccc(F)c(C(F)(F)F)c1` (some centres unmarked) [compound 698]: the concentration giving a half-maximal response (EC50) worked out at 1010 nM.
As to `COc1ccc([C@@]2(O)CO[C@@H]3[C@@H](O)CO[C@@H]32)cc1C(=O)N[C@H]1[C@@H](C(=O)Nc2ccc(F)c(C(F)(F)F)c2)[C@H]2CC[C@@H]1/C2=C\C1CC1` [compound 700], the EC50 was 1050 nM.
The value for `COCC1(CNC(=O)[C@@H]2[C@H](NC(=O)c3cc(C4=NOC5COCC45)ccc3OC)[C@@H]3CC[C@H]2/C3=C/C2CC2)CC1` (some centres unmarked) [compound 701] was 1090 nM; that for `COc1ccc(C2CCCN2)cc1C(=O)N[C@@H]1C2CCC(C2=CC2CC2)[C@@H]1C(=O)Nc1ccc(F)c(C(F)(F)F)c1` (some centres unmarked) [compound 703] was 1190 nM.
Under `COc1ccc(C2=NOC3COCC23)cc1C(=O)N[C@H]1[C@@H](C(=O)NCc2ccnn2C)[C@H]2CC[C@@H]1/C2=C\C1CC1` (some centres unmarked) [compound 707] stands 1330 nM; under `COc1ccc(C2=NC[C@@H]3CCCN23)cc1C(=O)N[C@H]1[C@@H](C(=O)Nc2ccc(F)c(C(F)(F)F)c2)[C@H]2CC[C@@H]1/C2=C\C1CC1` [compound 708], 1360 nM; under `COc1ccc(N2CC(CN)CC2=O)cc1C(=O)N[C@H]1[C@@H](C(=O)Nc2ccc(F)c(C(F)(F)F)c2)[C@H]2CC[C@@H]1/C2=C\C1CC1` (some centres unmarked) [compound 712], 1600 nM.
Turning to `COc1ccc([C@@]2(O)CO[C@@H]3[C@@H](O)CO[C@@H]32)cc1C(=O)N[C@H]1[C@@H](C(=O)Nc2ccc(F)c(C(F)(F)F)c2)[C@H]2CC[C@@H]1/C2=C\C(F)(F)F` [compound 713], the concentration for a half-maximal effect (EC50) was 1670 nM.
The value for `O=C(N[C@H]1[C@@H](C(=O)Nc2ccc(F)c(C(F)(F)F)c2)[C@H]2CC[C@@H]1/C2=C\C1CC1)c1ccc(F)c(C2=NOC3COCC23)c1` (some centres unmarked) [compound 714] was 1750 nM; that for `COc1ccc(C2CCCN2)cc1C(=O)N[C@@H]1C2CCC(C2=CC2CC2)[C@@H]1C(=O)Nc1ccc(F)c(C(F)(F)F)c1` (some centres unmarked) [compound 720] was 3140 nM; that for `COc1ccc(C2=NOC3COCC23)cc1C(=O)N[C@H]1[C@@H](C(=O)NCc2cccnc2C)[C@H]2CC[C@@H]1/C2=C\C1CC1` (some centres unmarked) [compound 721] was 3910 nM.
In the case of `COc1ccc(C2=NOC3COCC23)cc1C(=O)N[C@H]1[C@@H](C(=O)NCc2ccn(C)n2)[C@H]2CC[C@@H]1/C2=C\C1CC1` (some centres unmarked) [compound 722], the EC50 came out at 4180 nM.
As to `COc1ccc(C2=NOC3CC(C)(CO)CC23)cc1C(=O)N[C@H]1[C@@H](C(=O)Nc2ccc(F)c(C(F)(F)F)c2)[C@H]2CC[C@@H]1/C2=C\C1CC1` (some centres unmarked) [compound 735], the EC50 worked out at 1.3 nM.

The record behind these values is patent US20250221966A1, “RXFP1 AGONISTS” (BRISTOL-MYERS SQUIBB COMPANY, priority 2021, published 2025).
